These results are taken from ChEMBL document CHEMBL1157321, “Bioactivity profiling using HPLC/microtiter-plate analysis: application to a New Zealand marine alga-derived fungus, Gliocladium sp” (J Nat Prod, 2006).

Active and inactive are the calls of the source. The rule behind the calls is not given here.

The test system of one test is Bacillus subtilis. Kind of test: Antibacterial activity against Bacillus subtilis at 40 ug/disk. The class given is functional. The following applies: for zone of inhibition at 40 µg/disc: read-out: IZ.
Test [1] concerns Trichophyton mentagrophytes. Briefly: Antifungal activity against Trichophyton mentagrophytes at 40 ug/disk. The class given is functional. The following applies: for zone of inhibition at 40 µg/disc: read-out: IZ.
The subject of a further test is Amorphotheca resinae. Kind of test: Antifungal activity against Cladosporium resinae at 40 ug/disk. The following applies: for zone of inhibition at 40 µg/disc: read-out: IZ. The format is functional.
In the next test the test system is P388. Kind of test: Cytotoxicity against mouse P388 cells. The class given is functional, cell-based.

Turning to `C[C@@H]1CCC(=O)/C=C/C(=O)O[C@H](C)C(=O)/C=C/C(=O)O1`, the zone of inhibition at 40 µg/disc (in the test on Bacillus subtilis; in test [1]) was 1 mm in each case. In addition, in the test with Amorphotheca resinae, the outcome was inactive. Half-maximal inhibition with P388 (IC50) required 3900 nM.
For `C[C@@H]1CC[C@@H](O)/C=C/C(=O)O[C@H](C)C(=O)/C=C/C(=O)O1`, the zone of inhibition at 40 µg/disc was determined as 6 mm with Bacillus subtilis, 2 mm in test [1] and 1 mm with Amorphotheca resinae. The molecule also displayed an IC50 in the test with P388 of 550 nM.
In the case of `CC(C)=CCOc1ccc(C[C@H]2NC(=O)[C@H](C)NC(=O)[C@@H](Cc3ccc(O)cc3)NC(=O)CNC(=O)[C@H](C)NC(=O)[C@H](Cc3ccccc3)OC2=O)cc1`, the result (with Bacillus subtilis; in test [1]; in the test on Amorphotheca resinae; with P388) was inactive.
As for `C[C@@H]1CCC(=O)/C=C/C(=O)O[C@H](C)[C@@H](O)/C=C/C(=O)O1`, the zone of inhibition at 40 µg/disc with Bacillus subtilis was 3 mm; in test [1], 3 mm; with Amorphotheca resinae, 5 mm. The same molecule yielded a half-maximal inhibitory concentration (IC50) in the test on P388 of 1900 nM.
`C[C@@H]1CC[C@@H](O)/C=C/C(=O)O[C@H](C)[C@@H](O)/C=C/C(=O)O1` [CLONOSTACHYDIOL]: the result (in the test on Bacillus subtilis; in test [1]; with Amorphotheca resinae) was inactive. The IC50 with P388 is 25000 nM.
